Laboratory results as given in PMC9586926, “An efflux-susceptible antibiotic-adjuvant with systemic efficacy against mouse infections” (Scientific Reports, 2022).
Where a SMILES comes first, the peptide text is derived from it. [ ]: non-standard residue; d: D form. The star is where a group is joined. 12Ado = NCCCCCCCCCCCC(=O)O; Decanoyl = CCCCCCCCCC(=O)*; Dab = NCC[C@H](N)C(=O)O

What was measured:
[1] = […] S.C., mice plasma, UPLC-MS
Procedure: Animal procedures were reviewed and approved by the Institutional Animal Care and Use Committee (ethics no. IL-0800519, IL-0760711, IL-0550618, IL-0320320, IL-1270821) and performed in accordance with the “Guide for the Care and Use of Laboratory Animals”, published by the US National Research Council[70]. The study is reported in accordance with ARRIVE guidelines. All protocols employed 4–5-week-old male ICR mice, weighing 20–25 g (Envigo; Jerusalem, Israel). Mice were kept on a 12 h light/dark cycle and provided with food and water ad-libitum. At the designated experimental end-points mice were euthanized by means of CO2 asphyxiation. […]
To assess lipopeptides circulating concentrations, mice (N = 3 per group) were S.C. administered with lipopeptides solutions (0.2 ml), sacrificed at specified times afterwards and their blood was aseptically collected. […] 0.5 ml of the supernatant were diluted 2-folds with Milli-Q water and analyzed by UPLC-MS using a C18 column. Quantification was performed using a calibration-curve generated with similarly processed blood samples, initially spiked with known lipopeptide concentrations. […] Quantification was performed using a calibration-curve generated with fresh lipopeptide solutions of known concentrations prepared in Milli-Q water.

E. coli = experiment: MIC, broth microdilution; format: cell-based, Escherichia coli; conditions: broth microdilution in LB, 18–24 h, 37 °C; n = 4 strains; published data in bold (not discernible)
From the text: Bacteria used in this study consisted of standard American Type Culture Collection (ATCC; Biological Industries, Beit Haemek, Israel) strains, clinically isolated (CI; Sourasky Medical Center, Tel Aviv, Israel) strains, as well as isogenic mutant strains. Gram-negative bacteria included Acinetobacter baumannii ATCC 19606; Escherichia coli ATCC 25922, 35218, CFT073, CI 14384, 16327, and the isogenic pair Ag100 (wild-type) and its efflux deficient mutant Ag100a (ΔacrAB); Klebsiella pneumoniae CI 1287, 224; Pseudomonas aeruginosa ATCC 27853, CI 1278, 8634; Salmonella enterica serovar Typhimurium ATCC 14028 (wild-type) and its isogenic efflux deficient mutant ΔacrAB. Bacteria were grown in Luria–Bertani broth (LB; 5 g/l NaCl, 5 g/l yeast extract, 10 g/l tryptone; pH = 7.0) at 37 °C with shaking. Over-night cultures were diluted 10-folds into fresh growth-medium and incubated at 37 °C with shaking until reaching mid-logarithmic phase. Then, bacterial concentrations were adjusted using O.D.600 nm measurements, and bacteria were subjected to the experimental procedures listed herein.
MIC was determined according to the broth microdilution method: antimicrobials were subjected to serial twofold dilutions in LB medium, and incubated with 5 × 10^5 CFU/ml of bacteria (final volume of 200 µl) for 18–24 h at 37 °C. Then, O.D.620 nm was measured (BioTek Instruments Synergy HT; Winooski, VT, USA), and the MIC was defined as the lowest antimicrobial concentration for which no increase in O.D.620 nm was evident, compared to the untreated control.

murine RBC = experiment: Hemolysis; format: cell-based; conditions: 1% hematocrit murine RBC, 3 h, 37 °C
Procedure: Permeabilization of red blood cells (RBC) was evaluated using absorbance measurements of extracellular hemoglobin. Serial twofold dilutions of lipopeptides were incubated with 1% hematocrit of murine RBC for 3 h at 37 °C with shaking. Samples were then centrifuged at 20,000 RCF for 5 min, and absorbance of the supernatants was measured at 450 nm (BioTek Instruments Synergy HT; Winooski, VT, USA). Percent hemolysis was then calculated by (AS − AN)/(AP − AN) × 100; where AS, AN, and AP represent the absorbance of the sample, negative control (PBS) and positive control (Milli-Q water), respectively. LC50 values were extracted from trend-lines generated for linear-regions of plots correlating lipopeptide concentrations and percent hemolysis.

HEK-293FT = experiment: Cytotoxicity, Alamar blue; format: cell-based, human; conditions: 24 h incubation, read-out: IC50 HEK-293FT (50% inhibition of cells respiration)
Procedure: Cell lines used in this study included murine RAW 264.7 macrophages and human embryonic kidney HEK-293FT cells (ATCC, Biological Industries, Beit Haemek, Israel). Cells were grown in Dulbecco’s modified eagle medium (DMEM) containing […] glucose, L-glutamine, sodium bicarbonate and sodium pyruvate, supplemented with 10% fetal bovine serum and pen-strep, at 37 °C and 5% CO2.
Lipopeptides cytotoxicity was determined using fluorescent measurements of reduced resazurin. 2 × 10^4 cells were first cultured in 96-well plates over-night (final volume of 100 µl) at 37 °C and 5% CO2. Then, the medium was removed and cells were incubated for an additional 24 h with serial twofold dilutions of the lipopeptides in growth medium. Then, 10 µl of Alamar blue were added and plates were incubated for 3 h, after which fluorescence (excitation: 530 nm; emission: 590 nm) of the reduced resazurin was recorded (BioTek Instruments Synergy HT; Winooski, VT, USA).

## CCCCCCCCCC(=O)N[C@@H](CCN)C(=O)N[C@@H](CCN)C(=O)NCCCCCCCCCCCC(=O)N[C@@H](CCN)C(N)=O [C10BBc12B, decanoyl-bis.diaminobutyrate-aminododecanoyl-diaminobutyrate-amide] (Decanoyl-[Dab][Dab][12Ado][Dab]-NH2)
[1]
  time with antibiotics potentiating concentrations (≥ 2.5 µg/ml) maintained: > 2 h
[1]; n = 3 per time point
  time after which most lipopeptide cleared from the bloodstream: ~ 180 min
E. coli
  MIC E. coli (n=4): 50 µM
Murine RBC
  LC50 Erythrocytes (50% hemolysis): > 50 µM
HEK-293FT
  IC50: > 50 µM
